The format of the data set is physicochemical. The settings on record: relative to tank mix of CLARITY and CONTROLMAX; dicamba 1.2 wt. % a.e., glyphosate 2.4 wt. % a.e.; 35° C., 40% RH, 24 hours.

Procedure: The dicamba volatility from each composition was measured by the procedure described in “A Method to Determine the Relative Volatility of Auxin Herbicide Formulations” in ASTM publication STP1587 entitled “Pesticide Formulation and Delivery Systems: 35th Volume, Pesticide Formulations, Adjuvants, and Spray Characterization in 2014, published 2016, which is incorporated herein by reference.
Humidomes obtained from Hummert International (Part Nos 14-3850-2 for humidomes and 11-3050-1 for 1020 flat tray) were modified by cutting a 2.2 cm diameter hole on one end approximately 5 cm from the top to allow for insertion of a glass air sampling tube (22 mm OD) containing a polyurethane foam (PUF) filter. The sampling tube was secured with a VITON o-ring on each side of the humidome wall. The air sampling tube external to the humidome was fitted with tubing that was connected to a vacuum manifold immediately prior to sampling.
The flat tray beneath the humidome was filled with 1 liter of sifted dry or wet 50/50 soil (50% Redi-Earth and 50% US 10 Field Soil) to a depth of about 1 cm. […]
The flat tray bottom containing the auxin herbicide formulation on soil was covered with the humidome lid and the lid was secured with clamps. […] The PUF filter was extracted with 20 mL of methanol and the solution was analyzed for the auxin herbicide concentration using LC-MS methods known in the art.

In the case of `CCCC[N+](CCCC)(CCCC)CCCC.COc1c(Cl)ccc(Cl)c1C(=O)[O-]` [TBA Dicamba, tetrabutylammonium (TBA) dicamba], the “Volatility Reduction” value is given as 99.5%.

The values above are taken from patent US20190014776A1 (priority 2017, published 2019).
